Assay results published in patent publication US8440688B2, “Compounds, formulations and methods for reducing skin wrinkles, creasing and sagging” (Galderma Laboratories Inc., priority 2007, dated 2013).

System: severe wrinkling on their face
Assay: Topical application of COL-118 to facial wrinkles (Example 18)
Format: in vivo, human
Conditions: middle-aged person, topical 0.2% COL-118
Experimental: A middle-aged person has severe wrinkling on their face. They apply 0.2% COL-118 (an α2 adrenergic receptor agonist supplied by CollaGenex Pharmaceuticals, Inc., Newtown, Pa.). Wrinkling is noticeably diminished within 5 minutes by casual observation. After about 10 minutes, nearly all the wrinkles are gone. The effect lasts at least 8 hr.

Brc1c(NC2=NCCN2)ccc2nccnc12 [COL-118]
Duration of the wrinkle-reducing effect: at least 8 hr | Time after which nearly all the wrinkles are gone: about 10 minutes | Time until wrinkling is noticeably diminished (casual observation): ≤ 5 min
